Measured values published in ChEMBL document CHEMBL3585335, “Isolation and Synthetic Diversification of Jadomycin 4-Amino-l-phenylalanine” (J Nat Prod, 2015).
Calls of active or inactive are those of the source. The calls are words filed in the database; no cut-off is given here.

Tests used:
Escherichia coli [1] = assay: Effect on photodynamic inactivation in Escherichia coli pUC19 DNA assessed as photo-mediated DNA cleavage at 10 to 100 uM by ethidium bromide gel-electrophoresis analysis
Escherichia coli [2] = assay: Effect on Copper-mediated Escherichia coli pUC19 DNA cleavage at 100 uM by gel-electrophoresis analysis
Escherichia coli [3] = assay: Effect on Copper-mediated Escherichia coli pBR322 DNA cleavage at 100 uM by gel-electrophoresis analysis

Activity (Escherichia coli [1]): inactive | Activity (Escherichia coli [2]): inactive | Activity (Escherichia coli [3]): inactive
SMILES: Cc1cc(O)c2c(c1)C1OC(=O)[C@H](Cc3ccc(NC(=O)COc4ccc5ccccc5c4)cc3)N1C1=C2C(=O)c2cccc(O[C@H]3C[C@@H](O)[C@@H](O)[C@H](C)O3)c2C1=O (stereo partly drawn)
